Tests used:
[1] = Cytotoxicity against MT-2 cells (MTT assay); type: cell-based; conditions: human
Experimental: (§1) The susceptibility of HIV-1LAI or HIV-2ROD to various compounds was determined as previously described[20]–[22]. Briefly, MT-2 cells (10^4/ml) were exposed to 100 TCID50 of HIV-1LAI or HIV-2ROD in the presence or absence of various concentrations of compounds in 96-well plates and were incubated at 37 °C for 7 days. After incubation, 100 μl of the medium was removed from each well, 3-(4,5-dimetylthiazol-2-yl)-2,5-diphenyltetrazolium bromide (MTT) solution (10 μl, 7.5 mg/ml in PBS) was added to each well, followed by incubation at 37 °C for 2 h. […] To determine the sensitivity of clinically isolated HIV-1s to compounds, PHA-PBMC (10^6/ml) were exposed to 50 TCID50 of each HIV-1 and cultured in the presence or absence of various concentrations of compounds in 10-fold serial dilutions in 96-well plates. In determining the drug-susceptibility of certain laboratory HIV-1 strains, MT-4 cells were employed as target cells as previously described[23],[24]. MT-4 cells (10^5/ml) were exposed to 100 TCID50 of drug-resistant HIV-1s in the presence or absence of various concentrations of compounds and were incubated at 37 °C. On day 7, the supernatants were harvested and the amounts of p24 were determined by using a fully-automated chemiluminescent enzyme immunoassay system (Lumipulse f: Fujirebio, Tokyo)[35]–[37]. […] All assays were performed in duplicate, and EC50 shown in this report represent average values of two to four independent experiments. PHA-PBMCs were derived from a single donor in each independent experiment. The research protocols described in the present study were carried out in accordance with relevant guidelines and regulations, and were approved in Ethics Committee for Epidemiological and General Research at the Faculty of Life Sciences, Kumamoto University.

[2] = test system: HIV-1BaL (subtype B, R5); assay: p24 production inhibition in PHA-PBMC; type: cell-based; conditions: Human immunodeficiency virus 1, PHA-PBMC, p24 Gag production
Experimental: as §1

[3] = test system: HIV-1ERS104pre (wild-type); assay: p24 production inhibition in PHA-PBMC; type: cell-based; conditions: Human immunodeficiency virus 1, PHA-PBMC, p24 Gag production
Experimental: as §1

[4] = test system: HIV-1MDR/B; assay: p24 production inhibition in PHA-PBMC; type: cell-based
Experimental: as §1

[5] = test system: HIV-1MDR/G; assay: p24 production inhibition in PHA-PBMC; type: cell-based
Experimental: as §1

[6] = test system: HIV-1MDR/TM; assay: p24 production inhibition in PHA-PBMC; type: cell-based
Experimental: as §1

[7] = test system: HIV-1MDRmix DRV ^R 20P; assay: p24 production inhibition in PHA-PBMC; type: cell-based
Experimental: as §1

[8] = test system: HIV-1ME46 (subtype B, X4/R5); assay: p24 production inhibition in PHA-PBMC; type: cell-based; conditions: Human immunodeficiency virus 1, PHA-PBMC, p24 Gag production
Experimental: as §1

[9] = test system: HIV-1APV ^R 5μM; assay: p24 production inhibition in MT-4 cells; type: cell-based
Experimental: as §1

[10] = test system: HIV-1ATV ^R 5μM; assay: p24 production inhibition in MT-4 cells; type: cell-based
Experimental: as §1

[11] = test system: HIV-1LPV ^R 5μM; assay: p24 production inhibition in MT-4 cells; type: cell-based
Experimental: as §1

[12] = test system: HIV-1NL4-3; assay: p24 production inhibition in MT-4 cells; type: cell-based; conditions: Human immunodeficiency virus 1, MT4, MT-4 cells
Experimental: as §1

[13] = test system: HIV-1_9510 ^R 36P; assay: p24 production inhibition in MT-4 cells; type: cell-based
Experimental: as §1

[14] = test system: HIV-1I47V; assay: p24 assay in MT-4 cells, recombinant clone; type: cell-based; conditions: Human immunodeficiency virus 1, MT4
Experimental: as §1
(§2) To generate HIV-1 clones carrying the desired AA substitutions, site-directed mutagenesis was performed with a QuikChange site-directed mutagenesis kit (Stratagene, La Jolla, CA), and the AA substitution-containing genomic fragments were introduced into pHIV-1NL4-3Sma, which had been created to have a SmaI site by changing two nucleotides (2590 and 2593) of pHIV-1NL4-3.

[15] = test system: HIV-1I84V; assay: p24 assay in MT-4 cells, recombinant clone; type: cell-based; conditions: Human immunodeficiency virus 1, MT4
Experimental: as §1, §2

[16] = test system: HIV-1L10F; assay: p24 assay in MT-4 cells, recombinant clone; type: cell-based; conditions: Human immunodeficiency virus 1, MT4
Experimental: as §1, §2

[17] = test system: HIV-1T91A; assay: p24 assay in MT-4 cells, recombinant clone; type: cell-based; conditions: Human immunodeficiency virus 1, MT4
Experimental: as §1, §2

[18] = test system: HIV-192UG029 (subtype A, X4); assay: p24 production inhibition in PHA-PBMC; type: cell-based, HIV-1; conditions: Human immunodeficiency virus 1, read-out: EC50 HIV-192UG029 (subtype A, X4)
Experimental: as §1

[19] = test system: laboratory and primary clinical HIV-1 isolates; assay: Antiviral activity, summary over strains; type: cell-based; conditions: Human immunodeficiency virus 1; range over isolates; read-out: EC50 against laboratory and primary clinical HIV-1 isolates
Experimental: (§3) The susceptibility of HIV-1LAI or HIV-2ROD to various compounds was determined as previously described[20]–[22]. Briefly, MT-2 cells (10^4/ml) were exposed to 100 TCID50 of HIV-1LAI or HIV-2ROD in the presence or absence of various concentrations of compounds in 96-well plates and were incubated at 37 °C for 7 days. After incubation, 100 μl of the medium was removed from each well, 3-(4,5-dimetylthiazol-2-yl)-2,5-diphenyltetrazolium bromide (MTT) solution (10 μl, 7.5 mg/ml in PBS) was added to each well, followed by incubation at 37 °C for 2 h. […] To determine the sensitivity of clinically isolated HIV-1s to compounds, PHA-PBMC (10^6/ml) were exposed to 50 TCID50 of each HIV-1 and cultured in the presence or absence of various concentrations of compounds in 10-fold serial dilutions in 96-well plates. In determining the drug-susceptibility of certain laboratory HIV-1 strains, MT-4 cells were employed as target cells as previously described[23],[24]. MT-4 cells (10^5/ml) were exposed to 100 TCID50 of drug-resistant HIV-1s in the presence or absence of various concentrations of compounds and were incubated at 37 °C. On day 7, the supernatants were harvested and the amounts of p24 were determined by using a fully-automated chemiluminescent enzyme immunoassay system (Lumipulse f: Fujirebio, Tokyo)[35]–[37]. […]

[20] = test system: HIVMDR strains; assay: p24 production inhibition in PHA-PBMC, summary over HIVMDR strains; type: cell-based, HIV-1; conditions: Human immunodeficiency virus 1, range over clinical HIVMDR isolates, read-out: EC50 values against HIVMDR
Experimental: as §3

[21] = test system: HIV-1NL4-3; assay: Viral growth kinetics in MT-4 cells (p24); type: cell-based; conditions: as low as 0.01 µM, 7 days
Experimental: (§4) The GRL-09510-resistant variant at passage 36 was propagated in fresh MT-4 cells without GRL-09510 for 7 days, and aliquoted HIV-1_9510 ^R P36 viral stocks were stored at −80 °C. MT-4 cells (3.2 × 10^5) were exposed to the HIV-1_9510 ^R P36 or wild-type HIV-1NL4-3 preparation containing 10 ng/ml p24 in 6-well plates for 3 hours, and the infected MT-4 cells were washed with fresh medium, divided into 4 fractions and each cultured with or without GRL-09510 (final concentration of MT-4 cells 10^4/ml, and drug concentrations 0, 0.01, 0.1 and 1 μΜ). The amounts of p24 were measured every two days for up to 7 days.

[22] = test system: HIV-1_9510 ^R P36; assay: Viral growth kinetics in MT-4 cells (p24); type: cell-based
Experimental: as §4

[23] = compared to EC50 for HIV-1ERS104pre
[24] = compared to HIV-1WT/ERS104pre, Supplemental Table 4
[25] = number in parentheses, compared to HIV-1NL4-3

## COc1ccc(S(=O)(=O)N(CC(C)C)CC(O)C(Cc2ccccc2)NC(=O)OC2C3COC4OCC2C4C3)cc1 (stereo not shown) [GRL-09510]
[1]
  CC50: 39000 ± 700 nM
[2]
  EC50: 3.1 ± 0.4 nM
[3]
  EC50: 3.5 ± 0.1 nM
[4]; PHA-PBMC, p24 Gag production
  EC50: 3.7 ± 0.1 nM
[4]; [23]
  fold change of EC50 HIV-1MDR/B: 1
[5]; PHA-PBMC, p24 Gag production
  EC50: 3.3 ± 1.4 nM
[5]; [23]
  fold change of EC50 HIV-1MDR/G: 1
[5]; [24]
  fold change in EC50 HIV-1MDR/G: 1
[6]; PHA-PBMC, p24 Gag production
  EC50: 4 ± 0.6 nM
[6]; [23]
  fold change of EC50 HIV-1MDR/TM: 1
[7]; PHA-PBMC, p24
  fold more effective than DRV against HIV-1DRV ^R 20P: 12 fold
[7]; [23]
  fold change of EC50 HIV-1MDRmix DRV ^R 20P: 7
[7]; [24]
  fold change in EC50 HIV-1MDRmixDRVR20P: 7
[7]; read-out: EC50 HIV-1MDRmix DRV ^R 20P, PHA-PBMC, p24 Gag production
  EC50: 25 ± 1 nM
[8]
  EC50: 1.2 ± 0.2 nM
[9]; compared to HIV-1NL4-3, Supplemental Table 4
  fold change in EC50 HIV-1APVR5M: 2
[9]; [25]
  fold change of EC50 HIV-1APV ^R 5μM: 2
[9]; read-out: EC50 HIV-1APV ^R 5μM, MT-4 cells, p24 Gag production
  EC50: 4.8 ± 0.1 nM
[10]; [25]
  fold change of EC50 HIV-1ATV ^R 5μM: 1
[10]; read-out: EC50 HIV-1ATV ^R 5μM, MT-4 cells, p24 Gag production
  EC50: 3.7 ± 0.9 nM
[11]; [25]
  fold change of EC50 HIV-1LPV ^R 5μM: 1
[11]; read-out: EC50 HIV-1LPV ^R 5μM, MT-4 cells, p24 Gag production
  EC50: 3.9 ± 0.5 nM
[12]; p24 Gag production, Table 3
  EC50: 2.8 ± 0.7 nM
[12]; p24 assay, Table 4, four to six independent experiments
  EC50: 2.2 ± 0.9 nM
[13]; Human immunodeficiency virus 1, MT4, MT-4 cells, p24 assay, read-out: EC50 HIV-1_9510 ^R 36P
  EC50: 24 ± 2 nM
[13]; compared to EC50 for HIV-1NL4-3, Supplemental Table 3
  fold change of EC50 HIV-19510RP36: 11
[13]; compared to the value against HIV-1NL4-3
  fold change of EC50 HIV-1_9510 ^R 36P: 11
[14]
  EC50: 3.6 ± 0.5 nM
[15]
  EC50: 3.3 ± 0.3 nM
[16]
  EC50: 4.4 ± 0.2 nM
[17]
  EC50: 3.3 ± 0.4 nM
[18]
  EC50: 2.7 ± 0.1 nM
[19]
  EC50: 1.4 to 2.8 nM
[20]
  EC50: 3.2 to 4 nM
[21]
  growth of HIV-1NL4-3 in the presence of drug: failed to grow
[22]; 1 µM
  replication of HIV-1_9510 ^R P36 in the presence of drug: completely suppressed
[22]; 0.01 and 0.1 µM, 7-day culture
  growth of HIV-1_9510 ^R P36 in the presence of drug: propagated

— publication PMC5613016, “GRL-09510, a Unique P2-Crown-Tetrahydrofuranylurethane -Containing HIV-1 Protease Inhibitor, Maintains Its Favorable Antiviral Activity against Highly-Drug-Resistant HIV-1 Variants in vitro” (Scientific Reports, 2017)
